Source: patent US10100027B2, “Benzofuran analogue as NS4B inhibitor” (priority 2014, dated 2018)
pEC50: −log10 of the molar value.

Columns and labels:
Type in all cases: cell-based
[1] = test system: HCV genotype 1b (HCV-1b) replicon cells; test: HCV genotype 1b replicon cell assay (luciferase, Bright-Glo); conditions: Hepatitis C virus, 72 h, HCV-1b (Con1) replicon cells, 3 days
Experimental: (§1) The EC50 and CC50 values of anti-HCV compounds were determined by HCV genotype 1a (HCV-1a) and 1b (HCV-1b) stable transfected replication (replicon) cells. The source of genotype 1a replicon is H77 clones containing K1691R, K2040R and S2204I adaptive mutations. The source of genotype 1b replicon is Con1 clones containing E1202G, T1280I and K1846T adaptive mutations.
(§2) HCV 1a (HCV-1a) and 1b (HCV-1b) gene subtype replicon system contains the related HCV gene subtype non-structural protein gene, G418 resistance gene NEO and luciferase gene, which results in that HCV related protein and luciferase can be stably expressed in cells. By detecting the level of expression of luciferase gene, the level of HCV replication can be determined. Therefore, the system is used as a model for screening the activity of anti-HCV compound in vitro.
(§3) The compound powder was dissolved in 100% DMSO. Then the compound was diluted 5 times with 6 points, and added into the cell plate with Echo liquid handler. Ensure the final concentration of DMSO was 0.5%. Each compound was tested in duplicate.
(§4) 4) Diluting cells to 8×10^4 cells/mL with the culture medium, adding the diluted cells into the compound-containing 96-well plate (Greiner, Cat. #655090) (100 μL/well, 8000 cells/well) with automatic liquid separator (Thermo Scientific). Then place into a 37° C., 5% CO2 incubator for 3 days. Cell control well: no compound, only containing 0.5% DMSO.
(§5) 6) Then adding luciferase substrate Bright-Glo, after incubation for 5 minutes, detecting the luciferase activity by microplate reader Envison (wavelength>700 nm); analyzing the anti-HCV inhibitory activity of the compounds according to luminescence data, which was used to calculate EC50 values.
(§6) The EC50 or CC50 values were obtained by nonlinear fitting regression on inhibition percentage (inh %) data with GraphPad Prism software.

[2] = test system: HCV genotype 1a (HCV-1a) replicon cells; test: HCV genotype 1a replicon cell assay (luciferase, Bright-Glo); conditions: Hepatitis C virus, 72 h, HCV-1a (H77) replicon cells, 3 days
Experimental: as §1, §2, §3, §4, §5, §6

[3] = Cytotoxicity in HCV replicon cells (Cell Titer-fluor)
Experimental: as §1, §3, §4
5) Adding fluorescence substrate Cell Titer-fluor to the cell well, after incubation for 30 minutes, detecting the signal by microplate reader Envison (Ex at 405 nm and read at 515 nm). The effect of the compounds on the cytotoxicity of HCV replicon cells was analyzed according to the fluorescence data, which was used to calculate the CC50 values.
as §6

CC1CN(C(=O)C2CCN(C(=O)c3oc4c(C(F)(F)F)cc(C5CC5)cc4c3Cl)CC2)CCN1C (stereo not drawn) [YD_0325]
pEC50 [1]: 5.30 to 6.00 | pEC50 [2]: 6.00 to 7.00 | CC50 at 3 days [3]: > 3000 nM

O=C1NN(C(=O)c2nc3c(C(F)(F)F)cc(C4CC4)cn3c2Cl)CCN1CC(F)F [YA_0358]
pEC50 [1]: 6.00 to 7.00 | pEC50 [2]: 6.00 to 7.00 | CC50 at 3 days [3]: > 3000 nM

CCCc1cc(C(F)(F)F)c2oc(C(=O)NC34CCC(c5nnc(C)o5)(CC3)CC4)c(Cl)c2c1 [YD_0060]
pEC50 [1]: 6.00 to 7.00 | CC50 at 3 days [3]: > 3000 nM

CC(C)N1CCN(C(=O)c2nc3c(C(F)(F)F)cc(C4CC4)cn3c2Cl)NC1=O [YA_0360]
pEC50 [1]: 7.00 to 10.00 | pEC50 [2]: 7.00 to 10.00 | CC50 at 3 days [3]: > 3000 nM

O=C(c1oc2c(C(F)(F)F)cc(C3CC3)cc2c1Cl)N1CCC(C(=O)N2CC3CC3C2)CC1 (stereo not drawn) [YD_0324]
pEC50 [1]: 7.00 to 10.00 | pEC50 [2]: 7.00 to 10.00 | CC50 at 3 days [3]: > 3000 nM

COC1(C)CN(C(=O)C2CCN(C(=O)c3oc4c(C(F)(F)F)cc(C5CC5)cc4c3Cl)CC2)C1 [YD_0344]
pEC50 [1]: 5.30 to 6.00 | pEC50 [2]: 6.00 to 7.00 | CC50 at 3 days [3]: > 3000 nM

CN(C)C(=O)C1CCN(C(=O)c2oc3c(C(F)(F)F)cc(C4CC4)cc3c2Cl)CC1 [YD_0273]
pEC50 [1]: 7.00 to 10.00 | pEC50 [2]: 7.00 to 10.00 | CC50 at 3 days [3]: > 3000 nM

O=C(c1oc2c(C(F)(F)F)cc(C3CC3)cc2c1Cl)N1CCN(C2CCCC2)C(=O)N1 [YD_0357]
pEC50 [1]: 7.00 to 10.00 | pEC50 [2]: 7.00 to 10.00 | CC50 at 3 days [3]: > 3000 nM

CC1CN(C(=O)C2CCN(C(=O)c3oc4c(C(F)(F)F)cc(C5CC5)cc4c3Cl)CC2)CCO1 (stereo not drawn) [YD_0323]
pEC50 [1]: 6.00 to 7.00 | pEC50 [2]: 6.00 to 7.00 | CC50 at 3 days [3]: > 3000 nM

NC1CN(C(=O)C2CCN(C(=O)c3oc4c(C(F)(F)F)cc(C5CC5)cc4c3Cl)CC2)C1 [YD_0346]
pEC50 [1]: 6.00 to 7.00 | pEC50 [2]: 6.00 to 7.00 | CC50 at 3 days [3]: > 3000 nM

CC1(C(N)=O)CN(C(=O)C2CCN(C(=O)c3oc4c(C(F)(F)F)cc(C5CC5)cc4c3Cl)CC2)C1 [YD_0348]
pEC50 [1]: 5.30 to 6.00 | pEC50 [2]: 6.00 to 7.00 | CC50 at 3 days [3]: > 3000 nM

Cc1cc(C(F)(F)F)c2nc(C(=O)N3CCN(C(C)(C)C)C(=O)N3)c(Cl)n2c1 [YA_0368]
pEC50 [1]: 6.00 to 7.00 | pEC50 [2]: 7.00 to 10.00 | CC50 at 3 days [3]: > 3000 nM

CN(C(=O)C1CCN(C(=O)c2oc3c(C(F)(F)F)cc(C4CC4)cc3c2Cl)CC1)c1ccc(F)cn1 [YD_0329]
pEC50 [1]: 6.00 to 7.00 | pEC50 [2]: 6.00 to 7.00 | CC50 at 3 days [3]: > 3000 nM

CC1CN(C(=O)C2CCN(C(=O)c3oc4c(C(F)(F)F)cc(C5CC5)cc4c3Cl)CC2)C1 [YD_0350]
pEC50 [1]: 6.00 to 7.00 | pEC50 [2]: 6.00 to 7.00 | CC50 at 3 days [3]: > 3000 nM

CN1CCN(C(=O)C2CCN(C(=O)c3oc4c(C(F)(F)F)cc(C5CC5)cc4c3Cl)CC2)CC1 [YD_0305]
pEC50 [1]: 5.30 to 6.00 | pEC50 [2]: 6.00 to 7.00 | CC50 at 3 days [3]: > 3000 nM

CCCc1cc(C(F)(F)F)c2oc(C(=O)N3CCN(N4CCOC4=O)CC3)c(Cl)c2c1 [YD_0216]
pEC50 [1]: 7.00 to 10.00 | pEC50 [2]: 7.00 to 10.00 | CC50 at 3 days [3]: > 3000 nM

CC(C)c1cc(C(F)(F)F)c2oc(C(=O)N3CCN(N4CCOC4=O)CC3)c(Cl)c2c1 [YD_0215]
pEC50 [1]: 7.00 to 10.00 | pEC50 [2]: 7.00 to 10.00 | CC50 at 3 days [3]: > 3000 nM

CC(C)N1CCN(C(=O)c2oc3c(C(F)(F)F)cc(C4CC4)cc3c2Cl)NC1=O [YD_0374]
pEC50 [1]: 7.00 to 10.00 | pEC50 [2]: 7.00 to 10.00 | CC50 at 3 days [3]: > 3000 nM

O=C(c1oc2c(C(F)(F)F)cc(C3CC3)cc2c1Cl)N1CCC(C(=O)N2CC(O)C2)CC1 [YD_0356]
pEC50 [1]: 7.00 to 10.00 | pEC50 [2]: 7.00 to 10.00 | CC50 at 3 days [3]: > 3000 nM

N#Cc1c(C(=O)N2CCN(N3CCOC3=O)CC2)oc2c(C(F)(F)F)cc(C3CC3)cc12 [YD_0250]
pEC50 [1]: 7.00 to 10.00 | pEC50 [2]: 7.00 to 10.00 | CC50 at 3 days [3]: > 3000 nM

O=C1NN(C(=O)c2nc3c(C(F)(F)F)cc(C4CC4)cn3c2Cl)CCN1CC(F)(F)F [YA_0361]
CC50 at 3 days [3]: > 3000 nM

CN(C)C(=O)C1(C)CCN(C(=O)c2oc3c(C(F)(F)F)cc(C4CC4)cc3c2Cl)CC1 [YD_0317]
pEC50 [1]: 5.30 to 6.00 | pEC50 [2]: 6.00 to 7.00 | CC50 at 3 days [3]: > 3000 nM

O=C(c1nc2c(C(F)(F)F)cc(C3CC3)cn2c1Cl)N1CCN([C@H]2C[C@H](O)C2)C(=O)N1 [YA_0359]
CC50 at 3 days [3]: > 3000 nM

Cc1nnc(C23CCC(NC(=O)c4cc5cc(C(C)C)cc(C(F)(F)F)c5o4)(CC2)CC3)o1 [YD_0019]
pEC50 [1]: 6.00 to 7.00 | CC50 at 3 days [3]: > 3000 nM

O=C(c1oc2c(C(F)(F)F)cc(C3CC3)cc2c1Cl)N1CCN(N2CCOC2=O)CC1 [YD_0214]
pEC50 [1]: 7.00 to 10.00 | pEC50 [2]: 7.00 to 10.00 | CC50 at 3 days [3]: > 3000 nM

O=C(O)C1CCN1C(=O)C1CCN(C(=O)c2oc3c(C(F)(F)F)cc(C4CC4)cc3c2Cl)CC1 (stereo not drawn) [YD_0351]
pEC50 [1]: 5.30 to 6.00 | pEC50 [2]: 6.00 to 7.00 | CC50 at 3 days [3]: > 3000 nM

CC1CN(C(=O)C2CCN(C(=O)c3oc4c(C(F)(F)F)cc(C5CC5)cc4c3Cl)CC2)CCN1 (stereo not drawn) [YD_0326]
pEC50 [1]: 5.30 to 6.00 | pEC50 [2]: 6.00 to 7.00 | CC50 at 3 days [3]: > 3000 nM

CC1CN(C)CCN1C(=O)C1CCN(C(=O)c2oc3c(C(F)(F)F)cc(C4CC4)cc3c2Cl)CC1 (stereo not drawn) [YD_0321]
pEC50 [1]: 5.30 to 6.00 | pEC50 [2]: 6.00 to 7.00 | CC50 at 3 days [3]: > 3000 nM

O=C(c1oc2c(C(F)(F)F)cc(C3CC3)cc2c1Cl)N1CCC(=O)N(C2CCCC2)CC1 [YD_0330]
pEC50 [1]: 7.00 to 10.00 | pEC50 [2]: 6.00 to 7.00 | CC50 at 3 days [3]: > 3000 nM

Cc1nnc(C23CCC(NC(=O)c4oc5c(C(F)(F)F)cc(C6CC6)cc5c4Cl)(CC2)CC3)o1 [YD_0056]
pEC50 [1]: 5.30 to 6.00 | CC50 at 3 days [3]: > 3000 nM

CC(C)N(C)C(=O)C1CCN(C(=O)c2oc3c(C(F)(F)F)cc(C4CC4)cc3c2Cl)CC1 [YD_0302]
pEC50 [1]: 5.30 to 6.00 | pEC50 [2]: 6.00 to 7.00 | CC50 at 3 days [3]: > 3000 nM

O=C(c1oc2c(C(F)(F)F)cc(C3CC3)cc2c1Cl)N1CCC(C(=O)N2CC(F)(F)C2)CC1 [YD_0349]
pEC50 [1]: 6.00 to 7.00 | pEC50 [2]: 6.00 to 7.00 | CC50 at 3 days [3]: > 3000 nM

O=C(c1oc2c(C(F)(F)F)cc(C3CC3)cc2c1Cl)N1CCN([C@H]2CC[C@H](O)CC2)C(=O)N1 [YD_0365]
pEC50 [1]: 7.00 to 10.00 | pEC50 [2]: 7.00 to 10.00 | CC50 at 3 days [3]: > 3000 nM

O=C(c1nc2c(C(F)(F)F)cc(C3CC3)cn2c1Cl)N1CCN([C@H]2CC[C@H](O)CC2)C(=O)N1 [YA_0363]
pEC50 [1]: 7.00 to 10.00 | pEC50 [2]: 7.00 to 10.00 | CC50 at 3 days [3]: > 3000 nM

O=C(c1oc2c(C(F)(F)F)cc(C3CC3)cc2c1Cl)N1CCN(N2CCOC2=O)C(=O)C1 [YD_0219]
pEC50 [1]: 7.00 to 10.00 | pEC50 [2]: 7.00 to 10.00 | CC50 at 3 days [3]: > 3000 nM

O=C(c1oc2c(C(F)(F)F)cc(C3CC3)cc2c1Cl)N1CCCN(N2CCOC2=O)CC1 [YD_0279]
pEC50 [1]: 7.00 to 10.00 | pEC50 [2]: 7.00 to 10.00 | CC50 at 3 days [3]: > 3000 nM

O=C(c1nc2c(C(F)(F)F)cc(C3CC3)cn2c1Cl)N1CCN(C2CC2)C(=O)N1 [YA_0362]
CC50 at 3 days [3]: > 3000 nM

CC(C)c1cc(C(F)(F)F)c2oc(C(=O)N3CCN(C4CCC(O)CC4)C(=O)C3)cc2c1 (stereo not drawn) [YD_0044]
pEC50 [1]: 7.00 to 10.00 | CC50 at 3 days [3]: > 3000 nM

Cc1nnc(C23CCC(NC(=O)c4oc5c(C(F)(F)F)cc(C6CC6)cc5c4Br)(CC2)CC3)o1 [YD_0057]
pEC50 [1]: 6.00 to 7.00 | CC50 at 3 days [3]: > 3000 nM

Cc1nnc(C23CCC(NC(=O)c4oc5c(C(F)(F)F)cc(C6CC6)cc5c4C)(CC2)CC3)o1 [YD_0058]
pEC50 [1]: 6.00 to 7.00 | CC50 at 3 days [3]: > 3000 nM
